PubChem BioAssay AID330 (DTP/NCI, 2004)
Several values for one entry are separate records, joined by “and”; a condition that tells them apart may be missing. Equal entries are not always repeated. Inconclusive results and toxic doses are left out.

System: P388 leukemia ip, CD2F1 mice, survival T/C
Test: NCI In Vivo Anticancer Drug Screen. Data for tumor model P388 Leukemia (intraperitoneal) in CD2F1 (CDF1) mice
Conditions: endpoint: median survival time, higher = longer survival
In short: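 Mice carrying the transplanted tumor received test compound or vehicle. Survival was recorded in each group, and the value is the treated-group measurement divided by that of the vehicle-treated control group.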

[1] = dose: 100.0 mg/kg/injection, schedule: Q01DX001 (ip), vehicle: Klucel (hydroxypropylcellulose) (HPC)
[2] = dose: 200.0 mg/kg/injection, schedule: Q01DX001 (ip), vehicle: Klucel (hydroxypropylcellulose) (HPC)
[3] = dose: 400.0 mg/kg/injection, schedule: Q01DX001 (ip), vehicle: Klucel (hydroxypropylcellulose) (HPC)
[4] = dose: 50.0 mg/kg/injection, schedule: Q01DX005 (ip), vehicle: Klucel (hydroxypropylcellulose) (HPC)
[5] = dose: 12.5 mg/kg/injection, schedule: Q01DX005 (ip), vehicle: Klucel (hydroxypropylcellulose) (HPC)
[6] = dose: 25.0 mg/kg/injection, schedule: Q01DX005 (ip), vehicle: Klucel (hydroxypropylcellulose) (HPC)
[7] = dose: 100.0 mg/kg/injection, schedule: Q01DX001 (ip), vehicle: saline with Tween-80

## O=C1CCC2=C1C(c1ccc(Cl)c(Cl)c1)C1=C(CCC1=O)O2
[1]
  T/C: 98 % of control
[2]
  T/C: 100 % of control
[3]
  T/C: 102 % of control

## [Fe+2].[Fe+2].c1ccc2c(c1)-c1nc-2nc2[n-]c(nc3nc(nc4[n-]c(n1)c1ccccc41)-c1ccccc1-3)c1cc3c4nc5nc(nc6[n-]c(nc7nc(nc([n-]4)c3cc21)-c1ccccc1-7)c1ccccc61)-c1ccccc1-5
[4]
  T/C: 100 % of control
dose: 100.0 mg/kg/injection, schedule: Q01DX005 (ip), vehicle: Klucel (hydroxypropylcellulose) (HPC)
  T/C: 110 % of control
dose: 200.0 mg/kg/injection, schedule: Q01DX005 (ip), vehicle: Klucel (hydroxypropylcellulose) (HPC)
  T/C: 106 % of control

## C=C1CC[C@H]2C(C)=CC[C@@H]3[C@H](OC(=O)[C@H]3COC)[C@@H]12
dose: 100.0 mg/kg/injection, schedule: Q01DX001 (ip), vehicle: saline
  T/C: 107 % of control
dose: 200.0 mg/kg/injection, schedule: Q01DX001 (ip), vehicle: saline
  T/C: 97 % of control
dose: 400.0 mg/kg/injection, schedule: Q01DX001 (ip), vehicle: saline
  T/C: 103 % of control

## CCN(CC)c1ccc(C(=N)c2ccc(N(CC)CC)cc2)cc1
[5]
  T/C: 101 % of control
[6]
  T/C: 99 % of control
[4]
  T/C: 89 % of control and 90 % of control

## O=C(NC(=S)c1ccco1)NS(=O)(=O)c1ccc(Cl)cc1
dose: 25.0 mg/kg/injection, schedule: Q01DX001 (ip), vehicle: saline with Tween-80
  T/C: 100 % of control
dose: 50.0 mg/kg/injection, schedule: Q01DX001 (ip), vehicle: saline with Tween-80
  T/C: 95 % of control
[7]
  T/C: 96 % of control

## CCCOc1cccc2c1C(=O)c1c(O)c3c(c(O)c1C2=O)C[C@@](O)(C(C)=O)C[C@@H]3OC1CC(N)C(O)C(C)O1 (stereo partly drawn)
dose: 3.13 mg/kg/injection, schedule: Q04DX003 (ip), vehicle: water
  T/C: 105 % of control
dose: 6.25 mg/kg/injection, schedule: Q04DX003 (ip), vehicle: water
  T/C: 121 % of control
dose: 12.5 mg/kg/injection, schedule: Q04DX003 (ip), vehicle: water
  T/C: 121 % of control

## O=C(CBr)NN=C(c1ccccc1)c1ccccc1
dose: 29.0 mg/kg/injection, schedule: Q01DX009 (ip), vehicle: saline with Tween-80
  T/C: 104 % of control
dose: 58.0 mg/kg/injection, schedule: Q01DX009 (ip), vehicle: saline with Tween-80
  T/C: 101 % of control
dose: 116.0 mg/kg/injection, schedule: Q01DX009 (ip), vehicle: saline with Tween-80
  T/C: 110 % of control

## O=Cc1cc(/C=N/Nc2ccccc2C(=O)O)nc2[nH]c(=O)ccc12
dose: 100.0 mg/kg/injection, schedule: Q04DX002 (ip), vehicle: Klucel (hydroxypropylcellulose) (HPC)
  T/C: 107 % of control
dose: 200.0 mg/kg/injection, schedule: Q04DX002 (ip), vehicle: Klucel (hydroxypropylcellulose) (HPC)
  T/C: 102 % of control
dose: 400.0 mg/kg/injection, schedule: Q04DX002 (ip), vehicle: Klucel (hydroxypropylcellulose) (HPC)
  T/C: 101 % of control

## COc1cc(Br)c2nsnc2c1
dose: 50.0 mg/kg/injection, schedule: Q01DX005 (ip), vehicle: saline with Tween-80
  T/C: 91 % of control
dose: 100.0 mg/kg/injection, schedule: Q01DX005 (ip), vehicle: saline with Tween-80
  T/C: 91 % of control

## O=C(Nc1ccc(C2=NCC(O)CN2)cc1)c1ccc(C(=O)Nc2ccc(C3=NCC(O)CN3)cc2)cc1 (stereo not drawn)
dose: 1.56 mg/kg/injection, schedule: Q01DX005 (ip), vehicle: saline with Tween-80
  T/C: 122 % of control
dose: 6.25 mg/kg/injection, schedule: Q01DX005 (ip), vehicle: saline with Tween-80
  T/C: 155 % of control

## O=C1C2=C(Nc3cc([N+](=O)[O-])ccc3N2)OC1c1ccc(C2OC3=C(Nc4ccc([N+](=O)[O-])cc4N3)C2=O)cc1 (stereo not drawn)
dose: 60.0 mg/kg/injection, schedule: Q01DX005 (ip), vehicle: Klucel (hydroxypropylcellulose) (HPC)
  T/C: 102 % of control
dose: 120.0 mg/kg/injection, schedule: Q01DX005 (ip), vehicle: Klucel (hydroxypropylcellulose) (HPC)
  T/C: 96 % of control
dose: 240.0 mg/kg/injection, schedule: Q01DX005 (ip), vehicle: Klucel (hydroxypropylcellulose) (HPC)
  T/C: 99 % of control

## COC(=O)C(C)(O)C(C)C1CO1 (stereo not drawn)
dose: 50.0 mg/kg/injection, schedule: Q01DX005 (ip), vehicle: saline
  T/C: 98 % of control
dose: 100.0 mg/kg/injection, schedule: Q01DX005 (ip), vehicle: saline
  T/C: 101 % of control
dose: 200.0 mg/kg/injection, schedule: Q01DX005 (ip), vehicle: saline
  T/C: 121 % of control

## COC(=O)C1(C)N=NN=C1N(C)C (stereo not drawn)
dose: 100.0 mg/kg/injection, schedule: Q04DX002 (ip), vehicle: saline
  T/C: 101 % of control
dose: 200.0 mg/kg/injection, schedule: Q04DX002 (ip), vehicle: saline
  T/C: 100 % of control
dose: 400.0 mg/kg/injection, schedule: Q04DX002 (ip), vehicle: saline
  T/C: 101 % of control

## COC(=O)C1=C/C=C\CN(CCC2OCCO2)/C=C\1C(=O)OC
dose: 100.0 mg/kg/injection, schedule: Q01DX001 (ip), vehicle: alcohol
  T/C: 99 % of control
dose: 200.0 mg/kg/injection, schedule: Q01DX001 (ip), vehicle: alcohol
  T/C: 100 % of control
dose: 400.0 mg/kg/injection, schedule: Q01DX001 (ip), vehicle: alcohol
  T/C: 100 % of control

## CCN(CC)CCOC(=O)c1ccc(N=NC2Sc3nc4ccccc4n3C2=O)cc1 (stereo not drawn)
dose: 7.5 mg/kg/injection, schedule: Q01DX005 (ip), vehicle: Klucel (hydroxypropylcellulose) (HPC)
  T/C: 92 % of control
dose: 15.0 mg/kg/injection, schedule: Q01DX005 (ip), vehicle: Klucel (hydroxypropylcellulose) (HPC)
  T/C: 96 % of control
dose: 30.0 mg/kg/injection, schedule: Q01DX005 (ip), vehicle: Klucel (hydroxypropylcellulose) (HPC)
  T/C: 96 % of control

## O=C(O)C1Cc2c([nH]c3ccccc23)CN1 (stereo not drawn)
dose: 12.5 mg/kg/injection, schedule: Q01DX009 (ip), vehicle: suspension in saline
  T/C: 100 % of control
dose: 25.0 mg/kg/injection, schedule: Q01DX009 (ip), vehicle: suspension in saline
  T/C: 109 % of control
dose: 50.0 mg/kg/injection, schedule: Q01DX009 (ip), vehicle: suspension in saline
  T/C: 105 % of control
dose: 100.0 mg/kg/injection, schedule: Q01DX009 (ip), vehicle: suspension in saline
  T/C: 106 % of control

## NC(=S)n1nc(-c2ccccc2)c(N=Nc2cccc(Cl)c2Cl)c1-c1ccccc1
[7]
  T/C: 89 % of control
dose: 200.0 mg/kg/injection, schedule: Q01DX001 (ip), vehicle: saline with Tween-80
  T/C: 94 % of control
dose: 400.0 mg/kg/injection, schedule: Q01DX001 (ip), vehicle: saline with Tween-80
  T/C: 97 % of control

## CC12CCC(=O)N1c1ccccc1N2 (stereo not drawn)
dose: 60.0 mg/kg/injection, schedule: Q01DX005 (ip), vehicle: saline with Tween-80
  T/C: 98 % of control
dose: 120.0 mg/kg/injection, schedule: Q01DX005 (ip), vehicle: saline with Tween-80
  T/C: 94 % of control
dose: 240.0 mg/kg/injection, schedule: Q01DX005 (ip), vehicle: saline with Tween-80
  T/C: 102 % of control

## COc1ccc(/C=C/c2ccc3ccccc3[n+]2C)cc1Br
[5]
  T/C: 113 % of control
[6]
  T/C: 113 % of control
[4]
  T/C: 113 % of control and 119 % of control

## OC[C@@H]1CCCN2CCCC[C@H]12
dose: 6.2 mg/kg/injection, schedule: Q01DX007 (ip), vehicle: carboxymethylcellulose (CMC)
  T/C: 91 % of control
dose: 12.5 mg/kg/injection, schedule: Q01DX007 (ip), vehicle: carboxymethylcellulose (CMC)
  T/C: 91 % of control
dose: 25.0 mg/kg/injection, schedule: Q01DX007 (ip), vehicle: carboxymethylcellulose (CMC)
  T/C: 91 % of control

## C[N+]1(Cc2ccccc2)C2CCC(O)C1CC2 (stereo not drawn)
dose: 15.0 mg/kg/injection, schedule: Q01DX005 (ip), vehicle: saline
  T/C: 103 % of control
dose: 30.0 mg/kg/injection, schedule: Q01DX005 (ip), vehicle: saline
  T/C: 100 % of control
dose: 60.0 mg/kg/injection, schedule: Q01DX005 (ip), vehicle: saline
  T/C: 102 % of control

## Cn1c(Cl)c(/C=C(/NC(=O)c2ccccc2)C(=O)O)c2ccccc21
[1]
  T/C: 102 % of control
[2]
  T/C: 93 % of control
[3]
  T/C: 93 % of control

## O=C(NC(CCS(=O)(=O)n1ccnc1)C(=O)OCc1ccccc1)OCc1ccccc1 (stereo not drawn)
dose: 12.5 mg/kg/injection, schedule: Q01DX009 (ip), vehicle: other
  T/C: 97 % of control
dose: 25.0 mg/kg/injection, schedule: Q01DX009 (ip), vehicle: other
  T/C: 104 % of control
dose: 50.0 mg/kg/injection, schedule: Q01DX009 (ip), vehicle: other
  T/C: 106 % of control
dose: 100.0 mg/kg/injection, schedule: Q01DX009 (ip), vehicle: other
  T/C: 97 % of control
dose: 200.0 mg/kg/injection, schedule: Q01DX009 (ip), vehicle: other
  T/C: 90 % of control

## Cc1cc(C)c([N+](=O)[O-])c([N+](=O)[O-])c1C
dose: 50.0 mg/kg/injection, schedule: Q01DX009 (ip), vehicle: saline with Tween-80
  T/C: 101 % of control
dose: 100.0 mg/kg/injection, schedule: Q01DX009 (ip), vehicle: saline with Tween-80
  T/C: 106 % of control
dose: 200.0 mg/kg/injection, schedule: Q01DX009 (ip), vehicle: saline with Tween-80
  T/C: 102 % of control
